Measured values: ChEMBL document CHEMBL3994613, “Diaryltriazenes as antibacterial agents against methicillin resistant Staphylococcus aureus (MRSA) and Mycobacterium smegmatis” (Eur J Med Chem, 2017)
Values after ≈ are worked out from the molar mass of the structure shown.

Key:
[1] = test system: Mycolicibacterium smegmatis; test: Antimycobacterial activity against Mycobacterium smegmatis MC2 155 after 3 days by broth macrodilution method; assay type: functional; settings: str. MC2 155, 72 h
[2] = test system: Staphylococcus aureus; test: Antibacterial activity against methicillin-resistant Staphylococcus aureus USA300 by broth microdilution method

| SMILES | MIC [1] [µg/mL] | MIC [2] [µg/mL] |
| --- | --- | --- |
| CC1(C)S[C@@H]2[C@H](NC(=O)[C@H](N)c3ccccc3)C(=O)N2[C@H]1C(=O)O [AMPICILLIN] | 128 (≈ 366 µM) |  |
| CC1(C)S[C@@H]2[C@H](NC(=O)C(C(=O)O)c3ccccc3)C(=O)N2[C@H]1C(=O)O (some centres not stated) [CARBENICILLIN] | 512 (≈ 1350 µM) |  |
| CO[C@@]1(NC(=O)Cc2cccs2)C(=O)N2C(C(=O)O)=C(COC(N)=O)CS[C@@H]21 [CEFOXITIN] | 2 to 4 (≈ 4.68 to 9.36 µM) |  |
| CO/N=C(\C(=O)N[C@@H]1C(=O)N2C(C(=O)O)=C(CSc3nc(=O)c(O)nn3C)CS[C@H]12)c1csc(N)n1 [CEFTRIAXONE] | 32 (≈ 57.7 µM) |  |
| N[C@@H]1CONC1=O [CYCLOSERINE] | 105 (≈ 1030 µM) |  |
| CC(=O)NC[C@H]1CN(c2ccc(N3CCOCC3)c(F)c2)C(=O)O1 [LINEZOLID] |  | 2 to 4 (≈ 5.93 to 11.9 µM) |
| C/C(=C\C(=O)OCCCCCCCCC(=O)O)C[C@@H]1OC[C@H](C[C@@H]2O[C@H]2[C@@H](C)[C@H](C)O)[C@@H](O)[C@H]1O [MUPIROCIN] |  | 0.5 to 64 (≈ 0.999 to 128 µM) |
| Cc1onc(-c2ccccc2)c1C(=O)N[C@@H]1C(=O)N2[C@@H]1SC(C)(C)[C@@H]2C(=O)O [OXACILLIN] | 32 (≈ 79.7 µM) | 16 to 32 (≈ 39.9 to 79.7 µM) |
| NC[C@H]1O[C@H](O[C@H]2[C@H](O)[C@@H](O[C@H]3O[C@H](CO)[C@@H](O)[C@H](N)[C@H]3O)[C@H](N)C[C@@H]2N)[C@H](N)C[C@@H]1O [TOBRAMYCIN] |  | 0.5 to 2 (≈ 1.07 to 4.28 µM) |
| CN[C@H](CC(C)C)C(=O)N[C@H]1C(=O)N[C@@H](CC(N)=O)C(=O)N[C@H]2C(=O)N[C@H]3C(=O)N[C@H](C(=O)N[C@H](C(=O)O)c4cc(O)cc(O)c4-c4cc3ccc4O)[C@H](O)c3ccc(c(Cl)c3)Oc3cc2cc(c3O[C@@H]2O[C@H](CO)[C@@H](O)[C@H](O)[C@H]2O[C@H]2C[C@](C)(N)[C@H](O)[C@H](C)O2)Oc2ccc(cc2Cl)[C@H]1O [VANCOMYCIN] | 45 (≈ 31.1 µM) | 0.25 to 2 (≈ 0.173 to 1.38 µM) |
